What was measured:
HEK293 [1] = assay: Cytotoxicity against human HEK293 cells at 2 uM after 72 hrs by Alamar blue assay; type: cell-based; conditions: hek293, 72 h
Plasmodium falciparum [2] = assay: microbe, parasite or virus in culture; conditions: 3D7, 72 h
Description: Antimalarial activity against chloroquine-sensitive Plasmodium falciparum 3D7 after 72 hrs by DAPI staining method

HEK293 [3] = assay: Cytotoxicity against human HEK293 cells at 120 uM after 72 hrs by Alamar blue assay; type: cell-based; conditions: hek293, 72 h
in vitro [4] = conditions: human, HEK293 cells
Description: Selectivity index, ratio of antimicrobial activity against Plasmodium falciparum 3D7 over cytotoxicity against human HEK293 cells

in vitro [5] = conditions: human, HEK293 cells; remark: listed apart in the source
Description: Selectivity index, ratio of antimicrobial activity against Plasmodium falciparum Dd2 over cytotoxicity against human HEK293 cells

Plasmodium falciparum [6] = assay: microbe, parasite or virus in culture; conditions: Dd2, 72 h
Description: Antimalarial activity against chloroquine-resistant Plasmodium falciparum Dd2 after 72 hrs by DAPI staining method

Row | Structure (SMILES) | Activity (HEK293 [1]) [%] | IC50 (Plasmodium falciparum [2]) [µM] | Activity (HEK293 [3]) [%] | selectivity ratio (in vitro [4]) | selectivity ratio (in vitro [5]) | IC50 (Plasmodium falciparum [6]) [µM]
1 | CCN(CC)CCCC(C)Nc1ccnc2cc(Cl)ccc12 (stereo unspecified) [CHLOROQUINE] | 0 |  |  |  |  | 
2 | COc1ccc2c(c1O)-c1c(OC)c(OC)cc3c1[C@H](C2)NCC3.O=C(O)C(F)(F)F |  | 19 | 0 | > 6 | > 6 | 17
3 | C[n+]1ccc2cc3c(cc2c1Cc1ccc(O)cc1)OCO3.O=C([O-])C(F)(F)F |  | 4.4 | 0 | > 40 | > 27 | 3
4 | C[C@@H]1CC[C@H]2[C@@H](C)C(=O)O[C@@H]3O[C@@]4(C)CC[C@@H]1[C@]32OO4 [ARTEMISININ] | 0 | 0.021 |  | > 100 | > 100 | 0.021
